Patent US8268881B2, “Carboxamide derivatives as muscarinic receptor antagonists” (Pfizer Limited, priority 2005, dated 2012)

Target: T1, human muscarinic M3 receptor (Homo sapiens, UniProt P20309)
T1 construct: expressed in transfected cells
Test: hM3 β-Lac potency assay (cell based β-lactamase)
Settings: CHO cells expressing human M3 receptor, NFAT β-lactamase reporter; […]; IC50 converted to Ki by Cheng-Prusoff; read-out: Cell based β-lactamase M3 Ki
Description: M3 potency was determined in CHO-K1 cells transfected with the NFAT-Betalactamase gene. CHO (Chinese Hamster Ovary) cells recombinantly expressing the human muscarinic M3 receptor were transfected with the NFAT_β-Lac_Zeo plasmid.
The cells were re-suspended at 2×10^5 cells/ml in growth medium (composition as described above). […] Inhibition curves were plotted and IC50 values generated using a 4-parameter sigmoid fit and converted to Ki values using the Cheng-Prusoff correction and the KD value for carbamyl choline in the assay.

T1 sequence (P20309 whole entry): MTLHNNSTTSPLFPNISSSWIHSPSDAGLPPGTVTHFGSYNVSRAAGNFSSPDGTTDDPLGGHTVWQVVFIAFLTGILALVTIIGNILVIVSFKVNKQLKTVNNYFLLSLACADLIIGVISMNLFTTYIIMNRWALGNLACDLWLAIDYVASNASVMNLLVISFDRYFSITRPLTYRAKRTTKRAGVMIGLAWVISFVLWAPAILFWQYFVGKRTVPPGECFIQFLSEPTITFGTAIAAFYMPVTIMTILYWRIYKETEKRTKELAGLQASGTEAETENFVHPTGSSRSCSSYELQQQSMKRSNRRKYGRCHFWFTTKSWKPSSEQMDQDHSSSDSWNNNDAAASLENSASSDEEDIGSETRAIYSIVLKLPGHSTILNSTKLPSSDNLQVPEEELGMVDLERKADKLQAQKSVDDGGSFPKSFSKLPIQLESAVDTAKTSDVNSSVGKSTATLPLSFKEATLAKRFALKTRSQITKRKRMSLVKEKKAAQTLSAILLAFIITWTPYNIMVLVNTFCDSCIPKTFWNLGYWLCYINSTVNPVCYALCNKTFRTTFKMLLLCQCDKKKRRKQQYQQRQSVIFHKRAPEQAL

Compared with `COc1cccc(OC2CN(C(C)(C)CCC(C#N)(c3ccccc3)c3ccccc3)C2)c1` [Example 99, 5-[3-(3-Methoxyphenoxy)azetidin-1-yl]-5-methyl-2,2-diphenylhexanenitrile], `CC(C)(CCC(C#N)(c1ccccc1)c1ccccc1)N1CC(OCc2ccc(O)cc2)C1` [Example 151, 5-{3-[(4-Hydroxybenzyl)oxy]azetidin-1-yl}-5-methyl-2,2-diphenylhexanenitrile] is 340-fold lower in Ki: 65.7 nM for the first, 0.191 nM for the second. The second binds more tightly here.

Same assay, conditions: CHO cells expressing human M3 receptor, NFAT β-lactamase reporter; inhibition of 80 nM carbamyl choline signal, 4 h; IC50 converted to Ki by Cheng-Prusoff; read-out: Cell based β-lactamase M3 Ki

Going from `COc1cccc(OC2CN(C(C)(C)CCC(C(N)=O)(c3ccccc3)c3ccccc3)C2)c1` [Example 100, 5-[3-(3-Methoxyphenoxy)azetidin-1-yl]-5-methyl-2,2-diphenylhexanamide] to `CC(C)(CCC(C(N)=O)(c1ccccc1)c1ccccc1)N1CC(Oc2cccc(O)c2)C1` [Example 108, 5-[3-(3-Hydroxyphenoxy)azetidin-1-yl]-5-methyl-2,2-diphenylhexanamide], the Ki falls from 0.43 nM to 0.201 nM (2.1-fold). The second binds more tightly here.

`CC(C)(CCC(C(N)=O)(c1ccccc1)c1ccccc1)N1CC(OCc2ccccc2)C1` [Example 102, 5-[3-(Benzyloxy)azetidin-1-yl]-5-methyl-2,2-diphenylhexanamide] and `CC(C)(CCC(C(N)=O)(c1ccccc1)c1ccccc1)N1CC(Oc2ccccc2)C1` [Example 104, 5-Methyl-5-(3-phenoxyazetidin-1-yl)-2,2-diphenylhexanamide] are within 1.5-fold of each other in Ki: 0.0636 nM for the first, 0.0488 nM for the second.

First: COc1ccc(OC2CN(C(C)(C)CCC(C#N)(c3ccccc3)c3ccccc3)C2)cc1 [Example 105, 5-[3-(4-Methoxyphenoxy)azetidin-1-yl]-5-methyl-2,2-diphenylhexanenitrile]
Second: CC(C)(CCC(C#N)(c1ccccc1)c1ccccc1)N1CC(Oc2cccc(O)c2)C1 [Example 150, 5-[3-(3-Hydroxy-phenoxy)-azetidin-1-yl]-5-methyl-2,2-diphenyl-hexanenitrile]
The Ki of the first is 1.8-fold higher: 1.94 nM for the first, 1.05 nM for the second.

Compared with `CC(C)(CCC(C(N)=O)(c1ccccc1)c1ccccc1)N1CC(Oc2ccc(O)cc2)C1` [Example 107, 5-[3-(4-hydroxyphenoxy)azetidin-1-yl]-5-methyl-2,2-diphenylhexanamide], `CC(C)(CCC(C(N)=O)(c1ccccc1)c1ccccc1)N1CC(OCc2ccc(O)cc2)C1` [Example 152, 5-[3-(4-Hydroxy-benzyloxy)-azetidin-1-yl]-5-methyl-2,2-diphenyl-hexanoic acid amide] is 1.7-fold higher in Ki: 0.132 nM for the first, 0.229 nM for the second. The first binds more tightly here.

First: CC(C)(CCC(C(N)=O)(c1ccccc1)c1ccccc1)N1CC(Oc2ccccc2O)C1 [Example 109, 5-[3-(2-Hydroxyphenoxy)azetidin-1-yl]-5-methyl-2,2-diphenylhexanamide]
Second: CC(C)(CCC(C(N)=O)(c1ccccc1)c1ccccc1)N1CC(Oc2ccc(F)cc2O)C1 [Example 127]
The Ki of the first is 10-fold lower: 10.8 nM for the first, 110 nM for the second. The first binds more tightly here.

First: CC(C)(CCC(C(N)=O)(c1ccccc1)c1ccccc1)N1CC(Oc2cc(Cl)c(Cl)cc2O)C1 [Example 111, 5-{3-(4,5-Dichloro-2-hydroxy-phenoxy)-azetidin-1-yl}-5-methyl-2,2-diphenylhexanamide]
Second: CC(C)(CCC(C(N)=O)(c1ccccc1)c1ccccc1)N1CC(Oc2cc(O)ccc2Cl)C1 [Example 118, 5-[3-(2-Chloro-5-hydroxy-phenoxy)-azetidin-1-yl]-5-methyl-2,2-diphenyl-hexanoic acid amide]
The Ki of the first is 1.9-fold higher: 76.9 nM for the first, 40.7 nM for the second.

First: COc1cc(OC2CN(C(C)(C)CCC(C(N)=O)(c3ccccc3)c3ccccc3)C2)ccc1Cl [Example 113, 5-[3-(4-Chloro-3-methoxy-phenoxy)-azetidin-1-yl]-5-methyl-2,2-diphenylhexanamide]
Second: CC(C)(CCC(C(N)=O)(c1ccccc1)c1ccccc1)N1CC(Oc2ccc(Cl)c(O)c2)C1 [Example 114, 5-[3-(4-Chloro-3-hydroxy-phenoxy)-azetidin-1-yl]-5-methyl-2,2-diphenylhexanamide]
The Ki of the first is 3.7-fold higher: 7.22 nM for the first, 1.94 nM for the second. The second binds more tightly here.

Compared with `CC(C)(CCC(C(N)=O)(c1ccccc1)c1ccccc1)N1CC(OCc2cccc(O)c2)C1` [Example 115, 5-[3-(3-Hydroxy-benzyloxy)-azetidin-1-yl]-5-methyl-2,2-diphenyl-hexanoic acid amide], `CC(C)(CCC(C(N)=O)(c1ccccc1)c1ccccc1)N1CC(OCc2ccc(Cl)c(O)c2)C1` [Example 138, 5-[3-(4-Chloro-3-hydroxy-benzyloxy)-azetidin-1-yl]-5-methyl-2,2-diphenyl-hexanoic acid amide] is 2.7-fold higher in Ki: 0.176 nM for the first, 0.468 nM for the second.

Compared with `CC(C)(CCC(C(N)=O)(c1ccccc1)c1ccccc1)N1CC(Oc2cc(O)cc(F)c2)C1` [Example 121, 5-{3-(3-Fluoro-5-hydroxy-phenoxy)-azetidin-1-yl}-5-methyl-2,2-diphenylhexanamide], `CC(C)(CCC(C(N)=O)(c1ccccc1)c1ccccc1)N1CC(Oc2cc(O)cc(Cl)c2)C1` [Example 124, 5-[3-(3-Chloro-5-hydroxy-phenoxy)-azetidin-1-yl]-5-methyl-2,2-diphenylhexanamide] is 2.7-fold lower in Ki: 0.604 nM for the first, 0.223 nM for the second. The second binds more tightly here.

First: CC(C)(CCC(C(N)=O)(c1ccccc1)c1ccccc1)N1CC(OCc2c(Cl)ccc(O)c2Cl)C1 [Example 128, 5-[3-(2,6-Dichloro-3-hydroxy-benzyloxy)-azetidin-1-yl]-5-methyl-2,2-diphenyl-hexanoic acid amide]
Second: CC(C)(CCC(C(N)=O)(c1ccccc1)c1ccccc1)N1CC(OCc2ccc(O)c(Cl)c2)C1 [Example 146, 5-[3-(3-Chloro-4-hydroxy-benzyloxy)-azetidin-1-yl]-5-methyl-2,2-diphenyl-hexanoic acid amide]
The Ki of the first is 33-fold higher: 8.19 nM for the first, 0.247 nM for the second. The second binds more tightly here.

Compared with `NC(=O)C(CCC1(N2CC(Oc3ccc(Cl)c(O)c3)C2)CCCC1)(c1ccccc1)c1ccccc1` [Example 139, 4-{1-[3-(4-Chloro-3-hydroxy-phenoxy)-azetidin-1-yl]-cyclopentyl}-2,2-diphenyl-butyramide], `NC(=O)C(CCC1(N2CC(Oc3ccc(O)c(F)c3)C2)CCCC1)(c1ccccc1)c1ccccc1` [Example 145, 4-{1-[3-(3-Fluoro-4-hydroxy-phenoxy)-azetidin-1-yl]-cyclopentyl}-2,2-diphenyl-butyramide] is 2-fold higher in Ki: 5.39 nM for the first, 10.8 nM for the second. The first binds more tightly here.

First: CC(C)(CCC(C(N)=O)(c1ccccc1)c1ccccc1)N1CC(Oc2cc(O)cc(Br)c2)C1 [Example 142, 5-[3-(3-Bromo-5-hydroxy-phenoxy)-azetidin-1-yl]-5-methyl-2,2-diphenyl-hexanoic acid amide]
Second: CC(C)(CCC(C(N)=O)(c1ccccc1)c1ccccc1)N1CC(Oc2cc(O)cc(O)c2)C1 [Example 149, 5-[3-(3,5-Dihydroxy-phenoxy)-azetidin-1-yl]-5-methyl-2,2-diphenyl-hexanoic acid amide]
The Ki of the first is 11-fold higher: 8.05 nM for the first, 0.714 nM for the second. The second binds more tightly here.

Compared with `CC(C)(CCC(C(N)=O)(c1ccccc1)c1ccccc1)N1CC(OCc2ccc(Cl)cc2O)C1` [Example 147, 5-[3-(4-Chloro-2-hydroxy-benzyloxy)-azetidin-1-yl]-5-methyl-2,2-diphenyl-hexanoic acid amide], `CC(C)(CCC(C(N)=O)(c1ccccc1)c1ccccc1)N1CC(OCc2cccc(O)c2Cl)C1` [Example 148, 5-[3-(2-Chloro-3-hydroxy-benzyloxy)-azetidin-1-yl]-5-methyl-2,2-diphenyl-hexanoic acid amide] is 95-fold lower in Ki: 33.4 nM for the first, 0.353 nM for the second. The second binds more tightly here.
